The text below walks through data of patent publication US11214803B2, “Modulators of YAP1 expression” (Ionis Pharmaceuticals, Inc., priority 2019, dated 2022).

Strand notation (5' to 3'): a small letter for the sugar, then the base; units joined by * are phosphorothioate-linked, units joined directly phosphodiester-linked; [ ] holds rarer units or linkages, { } end groups; capitals alone tell only the bases. k = constrained ethyl (cEt); [5mC] = 5-methylcytosine; d = 2'-deoxy (DNA)

The first series concerns Yap1 mRNA. Put plainly: Antisense inhibition of human Yap1 in A-431 cells by cEt gapmers, single dose (Example 3, RTS36584). The format is cell-based. The following applies: Table 8; A-431 cells, 5,000 cells per well, free uptake, 2,000 nM, approximately 48 hours; RTS36584; normalized to RIBOGREEN; Yap1 mRNA relative to untreated control cells. A digest of the protocol:
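Single-dose free-uptake screen of 3-10-3 cEt gapmers in A-431 cells at 2,000 nM over about 48 h. Values are % untreated control Yap1 mRNA.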
Take “958375 (antisense kA*kA*kA*dG*d[5mC]*d[5mC]*dT*dT*dA*dG*dA*dG*dT*k[5mC]*kA*kA) [Compound 958375]”: the “YAP1 (% UTC)” value turned out to be 2 % UTC. In the case of “958359 (antisense kT*kG*k[5mC]*dA*dT*d[5mC]*dA*dG*dT*dA*d[5mC]*dT*dG*kG*k[5mC]*k[5mC]) [Compound 958359]”, the “YAP1 (% UTC)” value turned out to be 117 % UTC.

In the case of “958393 (antisense kG*k[5mC]*k[5mC]*dT*dA*dT*dG*dA*dG*dT*d[5mC]*dA*dA*k[5mC]*k[5mC]*kT) [Compound 958393]”, the “YAP1 (% UTC)” value was 89 % UTC. Same read-out and setting: the same measure for “958414 (antisense k[5mC]*kA*kG*dA*dA*dT*dT*d[5mC]*d[5mC]*d[5mC]*dA*dA*dG*k[5mC]*kT*kA) [Compound 958414]”: 73 % UTC.

The series is the same for the next values; noted with them: Table 9; A-431 cells, 5,000 cells per well, free uptake, 2,000 nM, approximately 48 hours; RTS36584; normalized to RIBOGREEN; Yap1 mRNA relative to untreated control cells.
Regarding “958746 (antisense kG*kT*kT*dA*dT*d[5mC]*d[5mC]*dT*d[5mC]*dT*dA*dT*dA*kG*kT*k[5mC]) [Compound 958746]”, the “YAP1 (% UTC)” value is recorded as 22 % UTC. Still for that read-out and setting: the same measure for “958556 (k[5mC]*kA*kA*d[5mC]*d[5mC]*dA*dA*d[5mC]*dT*dA*dT*dT*dA*k[5mC]*kT*kT; antisense) [Compound 958556]”: 10 % UTC. On to “958566 (kA*k[5mC]*k[5mC]*dT*dA*dT*dG*dA*dA*d[5mC]*dT*dA*dT*kT*kA*kT; antisense) [Compound 958566]”, for which the “YAP1 (% UTC)” value was 18 % UTC.

Staying with this series, now noted: Table 10; A-431 cells, 5,000 cells per well, free uptake, 2,000 nM oligonucleotide, approx. 48 hours; primer probe set RTS36584; Yap1 mRNA normalized to RIBOGREEN, percent of untreated control.
With “958532 (kG*kA*kA*dG*dT*dA*dG*dG*dA*dG*d[5mC]*dA*dA*kG*kT*k[5mC]; antisense) [Compound 958532]”, the “YAP1 (% UTC)” value amounted to 2 % UTC.

On to “958692 (antisense kG*kG*k[5mC]*dT*dA*dG*dA*dG*dG*d[5mC]*d[5mC]*dG*dG*kG*kT*kG) [Compound 958692]”, for which the “YAP1 (% UTC)” value is on record as 105 % UTC. Still for that read-out and setting: the same measure for “958597 (k[5mC]*k[5mC]*k[5mC]*dA*dA*dT*dA*d[5mC]*dA*dA*d[5mC]*d[5mC]*dA*kA*kG*kA; antisense) [Compound 958597]”: 6 % UTC; for “958552 (kT*kA*kT*dT*dA*d[5mC]*dT*d[5mC]*d[5mC]*dT*dG*dT*dA*kG*kA*k[5mC]; antisense) [Compound 958552]”: 16 % UTC. Regarding “958512 (k[5mC]*kA*kT*dT*d[5mC]*d[5mC]*dA*d[5mC]*dT*dA*d[5mC]*d[5mC]*dA*k[5mC]*kA*k[5mC]; antisense) [Compound 958512]”, the “YAP1 (% UTC)” value is 14 % UTC.

The same series, now with this note: Table 11; A-431 cells, 5,000 cells per well, free uptake, 2,000 nM oligonucleotide, approx. 48 hours; primer probe set RTS36584; Yap1 mRNA normalized to RIBOGREEN, percent of untreated control.
“958748 (antisense kA*k[5mC]*kA*dT*dG*dT*dG*dA*d[5mC]*dA*dT*dT*d[5mC]*k[5mC]*kG*kG) [Compound 958748]”: the “YAP1 (% UTC)” value is on record as 83 % UTC. In the case of “958548 (kG*kA*k[5mC]*dA*d[5mC]*dA*dT*dA*d[5mC]*dT*d[5mC]*dT*dA*kG*kT*kT; antisense) [Compound 958548]”, the “YAP1 (% UTC)” value amounted to 21 % UTC. The same measure, in the same setting: the same measure for “958783 (antisense kT*kG*kA*dT*d[5mC]*dT*dG*dA*dT*dG*d[5mC]*dT*dT*kG*k[5mC]*kT) [Compound 958783]”: 35 % UTC; for “958733 (antisense kT*kA*kA*dT*dA*dG*dA*d[5mC]*dT*dA*dG*dA*d[5mC]*kT*kT*kA) [Compound 958733]”: 67 % UTC.

Still in this series, the particulars now being: Table 12; A-431 cells, 5,000 cells per well, free uptake, 2,000 nM modified oligonucleotide, approx. 48 hours; RTS36584; normalized to RIBOGREEN; Yap1 mRNA relative to untreated control cells.
With “958799 (antisense kA*kT*kT*dA*d[5mC]*dT*d[5mC]*dA*dA*dT*d[5mC]*dA*dT*kG*kG*kT) [Compound 958799]”, the “YAP1 (% UTC)” value is recorded as 2 % UTC. Same read-out and setting: as for “958669 (kG*k[5mC]*kT*dA*dT*d[5mC]*dT*dT*dT*dG*dG*dA*dT*k[5mC]*k[5mC]*kA; antisense) [Compound 958669]”, the figure is 76 % UTC. On the same count and under the same terms, the same measure for “958549 (kT*kG*kT*dA*dG*dA*d[5mC]*dA*d[5mC]*dA*dT*dA*d[5mC]*kT*k[5mC]*kT; antisense) [Compound 958549]”: 8 % UTC.

The same series, now with this note: Table 13; A-431 cells, 5,000 cells per well, free uptake, 2,000 nM modified oligonucleotide, approx. 48 hours; RTS36584; normalized to RIBOGREEN; Yap1 mRNA relative to untreated control cells.
In the case of “958760 (antisense kA*kG*kT*dA*dA*dT*dA*dG*dA*dT*d[5mC]*dT*dA*k[5mC]*kA*kA) [Compound 958760]”, the “YAP1 (% UTC)” value came to 76 % UTC. As to “958795 (antisense kT*kA*kT*dT*d[5mC]*d[5mC]*dG*d[5mC]*dA*dT*dT*dG*d[5mC]*k[5mC]*kT*kA) [Compound 958795]”, the “YAP1 (% UTC)” value was found to be 8 % UTC.

The same series, now with this note: Table 26; Yap1 mRNA by 3-10-3 cEt gapmers targeting SEQ ID NO.: 1, and 2; percent of untreated control.
“1074188 (antisense kG*k[5mC]*kT*dG*d[5mC]*dG*dA*dA*dG*dG*d[5mC]*dG*dG*k[5mC]*kT*kG) [compound 1074188]”: the “YAP1 (% UTC)” value worked out at 113 % UTC. On to “1074540 (kA*k[5mC]*kT*dA*dT*d[5mC]*d[5mC]*dA*d[5mC]*dA*dG*dT*dA*kA*kT*kA; antisense) [compound 1074540]”, for which the “YAP1 (% UTC)” value stood at 26 % UTC.

In the case of “1075148 (k[5mC]*kG*kG*dA*dA*dA*dA*dA*dA*d[5mC]*dA*d[5mC]*d[5mC]*kT*kA*kG; antisense) [compound 1075148]”, the “YAP1 (% UTC)” value amounted to 66 % UTC. Regarding “1074924 (antisense k[5mC]*k[5mC]*kT*dG*d[5mC]*dA*dA*dA*dT*dA*dG*dG*dA*kG*kA*kG) [compound 1074924]”, the “YAP1 (% UTC)” value was 87 % UTC. Still for that read-out and setting: as for “1075788 (kT*k[5mC]*kT*dT*dA*dA*dG*dG*dA*dT*dT*dG*dG*k[5mC]*kT*kA; antisense) [compound 1075788]”, the figure is 15 % UTC.

Staying with this series, now noted: Table 27; Yap1 mRNA by 3-10-3 cEt gapmers targeting SEQ ID NO.: 1, and 2; percent of untreated control.
Take “1074349 (antisense k[5mC]*kT*kG*dT*dA*d[5mC]*dT*d[5mC]*dT*d[5mC]*dA*dT*d[5mC]*kT*k[5mC]*kG) [compound 1074349]”: the “YAP1 (% UTC)” value stood at 30 % UTC. On to “1074733 (kG*k[5mC]*k[5mC]*dA*dG*dG*dT*dA*dT*d[5mC]*dA*d[5mC]*dA*kG*kT*kA; antisense) [compound 1074733]”, for which the “YAP1 (% UTC)” value is reported as 47 % UTC.

As to “1075821 (k[5mC]*kT*kT*dA*dA*d[5mC]*dT*dT*d[5mC]*d[5mC]*d[5mC]*dA*d[5mC]*kT*k[5mC]*kG; antisense) [compound 1075821]”, the “YAP1 (% UTC)” value stood at 22 % UTC. The same measure, in the same setting: the same measure for “1076237 (kA*k[5mC]*kT*dA*dA*dA*dG*dG*dA*d[5mC]*dA*dA*dA*kG*kG*kT; antisense) [compound 1076237]”: 109 % UTC. Consider “1074669 (antisense kA*kT*k[5mC]*d[5mC]*d[5mC]*dA*dA*d[5mC]*dA*dA*d[5mC]*dA*dT*kG*k[5mC]*kT) [compound 1074669]”, for which the “YAP1 (% UTC)” value amounted to 13 % UTC.

Staying with this series, now noted: Table 29; Yap1 mRNA as percent of untreated control; 3-10-3 cEt gapmers targeting SEQ ID NO.: 1, and 2.
With “1075631 (antisense k[5mC]*k[5mC]*k[5mC]*dT*dA*dT*dA*dA*d[5mC]*d[5mC]*dA*dA*dA*kT*kG*k[5mC]) [compound 1075631]”, the “YAP1 (% UTC)” value is 104 % UTC. On the same count and under the same terms, as for “1075439 (antisense kA*kA*kT*dT*dA*dG*dA*dG*dA*dT*dA*dT*dG*kG*kA*k[5mC]) [compound 1075439]”, the figure is 77 % UTC. “1075535 (kA*kA*kT*dT*dA*d[5mC]*d[5mC]*d[5mC]*dA*dA*dG*dG*dA*k[5mC]*kA*kG; antisense) [compound 1075535]”: the “YAP1 (% UTC)” value is 53 % UTC. The same measure, in the same setting: as for “1075919 (antisense kT*k[5mC]*kT*dT*dA*dA*dA*d[5mC]*dT*dA*dA*d[5mC]*dT*kG*kT*kT) [compound 1075919]”, the figure is 78 % UTC.

Staying with this series, now noted: Table 34; Yap1 mRNA as percent of untreated control; 3-10-3 cEt gapmers targeting SEQ ID NO: 1 and 2; single dose.
For “1074996 (antisense kA*kA*kT*dA*dA*dA*dT*dG*d[5mC]*dT*dT*dA*d[5mC]*kG*kG*kG) [compound 1074996]”, the “YAP1 (% UTC)” value was found to be 60 % UTC. Regarding “1076052 (kG*k[5mC]*kA*dA*dT*dA*dA*dA*dG*d[5mC]*dT*dG*dA*kA*k[5mC]*kT; antisense) [compound 1076052]”, the “YAP1 (% UTC)” value turned out to be 23 % UTC.

Turning to “1075924 (antisense kA*kT*kT*dT*dA*dA*dT*dA*d[5mC]*dT*d[5mC]*dT*d[5mC]*kT*kG*kG) [compound 1075924]”, the “YAP1 (% UTC)” value is 21 % UTC.

Staying with this series, now noted: Table 35; Yap1 mRNA as percent of untreated control; 3-10-3 cEt gapmers targeting SEQ ID NO: 1 and 2; single dose.
Regarding “1074581 (DNA kA*kA*k[5mC]*d[5mC]*dA*d[5mC]*dT*dA*dT*dA*dA*dA*dG*k[5mC]*kT*kT; antisense) [compound 1074581]”, the “YAP1 (% UTC)” value is on record as 18 % UTC.

Turning to “1074165 (k[5mC]*k[5mC]*k[5mC]*dA*dG*dG*d[5mC]*dG*dA*dG*d[5mC]*dG*dA*kG*kG*kG; antisense) [compound 1074165]”, the “YAP1 (% UTC)” value amounted to 90 % UTC. On the same count and under the same terms, the same measure for “1074965 (antisense kG*kT*kG*dT*dT*dT*dA*dG*dG*d[5mC]*dA*dA*dG*k[5mC]*kA*kG) [compound 1074965]”: 20 % UTC; for “1074389 (kG*k[5mC]*kA*dG*dA*d[5mC]*dT*dT*dG*dG*d[5mC]*dA*dT*k[5mC]*kA*kG; antisense) [compound 1074389]”: 14 % UTC. Take “1076501 (k[5mC]*kA*kT*dA*dA*d[5mC]*dA*d[5mC]*dT*dT*dA*dA*dG*kG*kT*kG; antisense) [compound 1076501]”: the “YAP1 (% UTC)” value is given as 97 % UTC.
